Conditions: a range is the spread between reports

SMILES | melting point
O=C(Oc1cccc(OC(=O)c2ccccc2)c1)c1ccccc1 | 116 to 118 °C
Nc1ccc([N+](=O)[O-])cn1 | 187 to 188 °C
O=S(=O)(c1ccc(Cl)cc1)c1ccc(Cl)cc1 | 148 to 149 °C
O=[N+]([O-])c1cccc(Br)c1 | 54 to 56 °C
OCCCCO | 16 to 20.4 °C
Oc1ccncc1 | 145 to 150 °C
O=S(Cl)Cl | -105 to -104 °C
O=C(Cl)c1cccc(C(=O)Cl)c1 | 43.5 to 44 °C
O=[N+]([O-])c1ccc(Cl)c(Cl)c1Cl | 55 to 56 °C
O=CC=Cc1ccco1 | 51 to 54 °C
O=C(O)c1ccc2ccccc2n1 | 156 to 158 °C
N#Cc1ccc(Cl)cc1 | 92 to 95 °C
c1ccc2c(c1)sc1ccccc12 | 97 to 99 °C
C=CC=O | -87.7 to -87 °C
Oc1ccc(N=Nc2ccccc2)cc1 | 154 to 155 °C
O=S(=O)(F)F | -136 °C
O=C(O)c1ccc([N+](=O)[O-])cc1C(=O)O | 162 to 163 °C
O=C1OC(=O)c2c(Cl)c(Cl)c(Cl)c(Cl)c21 | 254 to 256 °C
Clc1cccc(Br)c1Cl | 58 to 60 °C
Nc1cccc(Cl)c1Cl | 22 to 24 °C

SMILES | melting point
N#CCc1ccc(O)cc1 | 69 to 71 °C
Oc1c(F)cccc1F | 38 to 39.5 °C
Brc1ccc(Br)c2ccccc12 | 81 to 83 °C
Nc1cc([N+](=O)[O-])cc([N+](=O)[O-])c1 | 161 to 163 °C
CCCCC1(CC)C(=O)NC(=O)NC1=O | 126 to 128 °C
ClC(Cl)c1ccccc1 | -17 to -16 °C
N#Cc1ccc(O)cc1 | 112 °C
ON=C1CCCC1 | 56 to 57.8 °C
Nc1ncccn1 | 125 to 128 °C
O=C(O)c1ccccc1F | 124 to 126 °C
Sc1ccccn1 | 127 to 129 °C
COc1ccc(C(=O)c2ccccc2)c(O)c1 | 64 to 65.5 °C
Clc1cc(Cl)c(Cl)nc1Cl | 90.5 to 91 °C
Cc1ccc(N)cc1N | 97 to 99 °C
Nc1nc(N)nc(-c2ccccc2)n1 | 226 to 227 °C
CC(=O)OC1CCC2(C)C(CC(=O)C3C4CCC(=O)C4(C)CCC32)C1 (configuration not stated) | 164 to 165 °C
CC12CCC(C(Br)C1=O)C2(C)C (configuration not stated) | 76 to 77 °C
Sc1nc2ccccc2s1 | 179 to 181 °C
Nc1ccc(F)cc1F | -8 to -7.5 °C
O=C(c1ccc(O)cc1O)c1ccc(O)cc1O | 201 to 202 °C

SMILES | melting point
Oc1ccc(O)c(-c2ccccc2)c1 | 101 to 102 °C
C1CC[C@H]2CCCC[C@H]2C1 | -43 to -42.9 °C
COc1ccc(/N=N/c2ccccc2)cc1 | 53 to 56 °C
Brc1ccccc1I | 9.5 to 10 °C
O=[N+]([O-])c1ccccc1-c1ccccc1 | 37 to 37.2 °C
Clc1ccccc1Br | -13 to -12.3 °C
O=C(O)CC[N+](=O)[O-] | 62 to 64 °C
N#Cc1ccc(I)cc1 | 125 to 126 °C
CCC(O)(CC)CC | -13 to -12.5 °C
C/C=C/c1ccccc1 | -29.3 to -27.1 °C
O=[N+]([O-])c1cccc2cccc([N+](=O)[O-])c12 | 172 to 173 °C
O=[N+]([O-])c1ccccc1CCl | 47 to 51 °C
O[Si](c1ccccc1)(c1ccccc1)c1ccccc1 | 152 to 155 °C
O=C(Cl)CCC(=O)Cl | 17 to 20 °C
O=C1CNC(=O)N1 | 220 to 222 °C
O=C(CCl)c1ccccc1 | 54 to 56.5 °C
O=C(CCC(=O)OCc1ccccc1)OCc1ccccc1 | 45 to 49.5 °C
BrCCCBr | -34.2 to -34 °C

The next lines start with the values.

melting point | SMILES
14 to 14.5 °C | CC(C)c1ccc2ccccc2c1
-111 °C | CC(C)C1CCCC1
177 to 179 °C | Cc1ccccc1NC(=N)Nc1ccccc1C
-99 to -98.8 °C | CC(=O)OCC(C)C
-130 °C | CC=C1CCCC1
-154 to -153 °C | C=CCC(C)C
-128 to -123 °C | CC=O
-142 °C | CC/C=C/C(C)C
-10 to -5 °C | C=Cc1cccc([N+](=O)[O-])c1
-94 to -93 °C | C=C(C)CC(C)(C)C
97 to 98 °C | OCc1c(Cl)cccc1Cl
90 to 91 °C | OCCc1ccc(O)cc1
-101 °C | CCC(C)C(C)(C)CC (configuration not stated)
-7 to -6 °C | Cc1cccc(C)n1
191 to 192 °C | NC(=O)c1ccc(Br)cc1
-5 to -4.5 °C | CNCCO
12 to 13 °C | CC(C)=CC=C(C)C
76 to 76.5 °C | Cc1ccc2oc(=O)ccc2c1
-80 to -79.7 °C | CCCCSCCCC
-99.3 to -99 °C | CCOC(=O)CC(C)C

melting point | SMILES
176 °C | Cc1nc2ccccc2[nH]1
95 to 96 °C | O=C(O)Cc1ccccc1Cl
74 to 75 °C | CN(C)c1ccc(C=O)cc1
152 to 154 °C | CC(=O)Nc1ccc(F)cc1
66 to 67 °C | CC(C)(C)C1=CC(=O)C=C(C(C)(C)C)C1=O
-91.2 to -91 °C | CCC(C)CC(O)CC (configuration not stated)
114 to 115 °C | COc1cc(C(C)=O)ccc1O
75 to 76.5 °C | Cc1n[nH]cc1Br
206 to 208 °C | Nc1cccc2ccc(O)cc12
-134 °C | C=CC(C)(C)CC
-105 to -104 °C | CCC(C)N (configuration not stated)
164 to 166 °C | CC(C)(C)c1ccc(C(=O)O)cc1
117 to 118 °C | O=Cc1ccc(O)cc1
27 to 29 °C | C=Cc1ccc([N+](=O)[O-])cc1
43 to 44.5 °C | CCOC(=O)Cc1c[nH]c2ccccc12
72 to 73.5 °C | CCS(=O)(=O)CC
63 to 65 °C | Cc1nnc(C)s1
-1.3 to 1 °C | CC(C)C(=O)c1ccccc1
-103 °C | CC(C)CCCC(C)C
104 to 108 °C | O=Cc1cccc(O)c1

melting point | SMILES
68 to 69 °C | CCn1c2ccccc2c2ccccc21
77 to 78 °C | CCNC(=S)NCC
143 to 148 °C | O=C(O)COCC(=O)O
205 to 208 °C | CC(=O)Nc1ccccc1O
29 to 33 °C | CC(=O)c1ccco1
-157 °C | C=C(C)C(C)C
105 to 107 °C | CCCCC1C(=O)N(c2ccccc2)N(c2ccccc2)C1=O
-102 °C | CSC(C)C
81.5 to 82 °C | O=C(O)CCI
-4 to -1.9 °C | CCCCCC(=O)O
-64 to -63.6 °C | CCCc1ccc(C)cc1
103 to 106 °C | O=C(O)Cc1ccc(Cl)cc1
65 to 68 °C | Cc1ccc(O)c(O)c1
-78.2 to -78 °C | C#CC(C)(C)C
0 to 2 °C | CCCCCCCCCC(C)O (configuration not stated)
114 to 115 °C | CC(C)(C)C1=CC(=O)C(=O)C(C(C)(C)C)=C1
53 to 55 °C | COc1cccc([N+](=O)[O-])c1C
119 to 122 °C | IC(I)I
128 to 130 °C | O=[N+]([O-])c1ccc(C=NO)cc1
